Measurements: patent publication US7368414B2, “Fungicidal mixtures” (BASF Aktiengesellschaft, priority 2000, dated 2008)

Tested on: Plasmopara viticola
Assay: Activity against downy mildew of grapes caused by Plasmopara viticola (protective, potted vines)
Type: in vivo
Settings: individual active compound
Experimental: The active compounds, separately or together, were formulated as 10% emulsion in a mixture of 63% by weight of cyclohexanone and 27% by weight of emulsifier, and diluted with water to the desired concentration.
Evaluation was carried out by determining the infected leaf areas in percent. These percentages were converted into efficacies. The efficacy (w) was calculated as follows using Abbot's formula: w=(1−α)·100/β • α corresponds to the fungal infection of the treated plants in % and • β corresponds to the fungal infection of the untreated (control) plants in %
An efficacy of 0 means that the infection level of the treated plants corresponds to that of the untreated control plants; an efficacy of 100 means that the treated plants were not infected.
The expected efficacies of the mixtures of the active compounds were determined using Colby's formula [R. S. Colby, Weeds 15, 20-22 (1967)] and compared with the observed efficacies. Colby Formula: E=x+y−x·y/100 • E expected efficacy, expressed in % of the untreated control, when using the mixture of the active compounds A and B at the concentrations a and b • x efficacy, expressed in % of the untreated control, when using the active compound A at a concentration a • y efficacy, expressed in % of the untreated control, when using the active compound B at a concentration b
Leaves of potted vines of the cultivar “Müller-Thurgau” were sprayed to run off point with an aqueous preparation of active compound which had been prepared from a stock solution comprising 10% of active compound, 85% of cyclohexanone and 5% of emulsifier. The next day, the undersides of the leaves were inoculated with an aqueous zoospore suspension of Plasmopara viticola. The vines were then initially placed at 24° C. in a chamber saturated with water vapor for 48 hours and then for 5 days in a greenhouse at 20-30° C. After this period of time, the plants were once more placed into a moist chamber for 16 hours to promote sporangiophore eruption. The extent of the development of the disease on the undersides of the leaves was then determined visually.

Cc1ccc(-c2c(Cl)nc(C#N)n2S(=O)(=O)N(C)C)cc1 [IIa, cyazofamid]
Efficacy in % of the untreated control (0.25 ppm in the spray liquor, vines Müller-Thurgau): 14%
Efficacy in % of the untreated control (1 ppm in the spray liquor): 57%
Efficacy in % of the untreated control (4 ppm in the spray liquor): 71%
